Reference: BindingDB's records for doi:10.1021/jm800792b (Industrial Research, 2008)

Experiments:
[1] = target: T1, Purine nucleoside phosphorylase (Homo sapiens, UniProt P00491); assay: Inhibition of human purine nucleoside phosphorylase assessed as slow onset inhibition constant by xanthine-oxidase coupled assay
T1 sequence (P00491 whole entry): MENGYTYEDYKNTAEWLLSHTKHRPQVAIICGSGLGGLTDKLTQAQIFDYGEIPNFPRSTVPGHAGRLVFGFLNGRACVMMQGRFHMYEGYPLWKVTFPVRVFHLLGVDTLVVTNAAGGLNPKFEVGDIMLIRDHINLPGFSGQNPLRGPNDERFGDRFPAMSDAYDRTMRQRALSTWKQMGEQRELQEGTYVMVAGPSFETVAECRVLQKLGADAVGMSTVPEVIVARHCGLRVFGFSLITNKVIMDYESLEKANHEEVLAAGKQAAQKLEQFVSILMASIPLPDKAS

[2] = target: T1, Purine nucleoside phosphorylase; assay: Inhibition of human purine nucleoside phosphorylase by xanthine-oxidase coupled assay

Q: With O=c1[nH]cnc2c(CN3C[C@H](O)[C@@](F)(CO)C3)c[nH]c12 [Immucillins, 1] as the compound, how does the Ki [1] read?
A: 0.5 nM

Q: And the Ki [2]?
A: 0.066 nM
